In BindingDB's records for doi:10.7270/Q2MK6B9H (Nmmlsc, 2009):

Biological target: Ras-related protein Rab-7a (Canis lupus familiaris, UniProt P18067)
Assay: inhibition of fluorescent GTP loading on Rab7 – biochemical, dog Rab7, bead multiplex flow cytometry, Bodipy-FL-GTP, pyrazoline series, SAR follow-up (AID 2041)
[1] = inactive by the depositor's call

Chain of Ras-related protein Rab-7a (P18067 whole entry): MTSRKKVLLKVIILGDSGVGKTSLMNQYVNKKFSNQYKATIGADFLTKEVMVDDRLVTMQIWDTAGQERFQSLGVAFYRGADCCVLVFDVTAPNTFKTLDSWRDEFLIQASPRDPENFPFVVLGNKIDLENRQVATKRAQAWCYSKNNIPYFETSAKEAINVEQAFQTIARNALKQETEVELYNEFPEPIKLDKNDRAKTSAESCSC

Row | Compound | EC50 [µM] | EC50 [1] [µM]
1 | Cc1onc(-c2ccccc2)c1-c1ccc(S(N)(=O)=O)cc1 | > 30 | 
2 | O=[N+]([O-])c1ccc([N+]2=N[C-](c3ccccc3)CC2c2ccccc2)cc1 (stereo unspecified) | > 30 | 
3 | Brc1ccc(N2N=C(c3ccccc3)CC2c2ccccc2)cc1 (stereo unspecified) | > 30 | 
4 | COc1ccccc1C1CC(c2ccccc2)=NN1c1ccccc1 (stereo unspecified) | > 30 | 
5 | Clc1cccc(N2N=C(c3ccccc3)CC2c2ccccc2)c1 (stereo unspecified) | > 30 | 
6 | Clc1ccc(N2N=C(c3ccccc3)CC2c2ccccc2)cc1 (stereo unspecified) |  | 6.64
7 | CC(=O)Oc1ccc(C2=NN(c3ccccc3)C(c3ccccc3)C2)cc1 (stereo unspecified) | > 30 | 
8 | O=C(O)c1ccc(N2N=C(c3ccccc3)CC2c2ccccc2)cc1 (stereo unspecified) | > 30 | 
9 | COc1ccc(C2=NN(c3ccccc3)C(c3ccccc3C(F)(F)F)C2)cc1 (stereo unspecified) | > 30 | 
10 | O=S(=O)(c1ccc(N2N=C(c3ccccc3)CC2c2ccccc2)cc1)C(F)F (stereo unspecified) |  | 0.508
11 | NS(=O)(=O)c1ccc(N2N=C(c3ccc(Cl)cc3)CC2c2ccccc2)cc1 (stereo unspecified) | > 30 | 
12 | CCc1ccc(C2=NN(c3ccc(S(N)(=O)=O)cc3)C(c3ccc(F)cc3)C2)cc1 (stereo unspecified) | > 30 | 
13 | CN(C)c1ccc(C2C[C-](c3ccccc3)N=[N+]2c2ccc([N+](=O)[O-])cc2)cc1 (stereo unspecified) | > 30 | 
14 | COc1ccc(C2CC(c3ccc(F)cc3)=NN2c2cccc(F)c2)cc1OC (stereo unspecified) | 22.5 | 
15 | COc1ccc(C2CC(c3ccccc3)=NN2c2ccc(Cl)c(C(=O)O)c2)cc1 (stereo unspecified) | > 30 | 
16 | COc1ccc(C2CC(c3ccc(Cl)cc3)=NN2c2ccc(S(N)(=O)=O)cc2)cc1 (stereo unspecified) | > 30 | 
17 | Cc1ccc(C2CC(c3ccccc3)=NN2c2ccc(S(N)(=O)=O)cc2)cc1 (stereo unspecified) | > 30 | 
18 | Cc1cccc(C2CC(c3ccccc3)=NN2c2ccc(S(N)(=O)=O)cc2)c1 (stereo unspecified) | > 30 | 
19 | COc1ccc(C2CC(c3ccccc3OC)=NN2c2ccc(S(N)(=O)=O)cc2)cc1 (stereo unspecified) | > 30 | 
20 | COc1ccc(C2CC(c3ccc(C)cc3)=NN2c2ccc(S(N)(=O)=O)cc2)cc1 (stereo unspecified) | > 30 | 
21 | COc1ccc(C2CC(c3cccc(C(F)(F)F)c3)=NN2c2ccc(S(N)(=O)=O)cc2)cc1 (stereo unspecified) | > 30 | 
22 | COc1ccc(C2CC(c3cccc(N(C)C)c3)=NN2c2ccc(S(N)(=O)=O)cc2)cc1 (stereo unspecified) | > 30 | 

Row | Compound | EC50 [µM] | EC50 [1] [µM]
23 | COc1ccc(C2CC(c3cccnc3)=NN2c2ccc(S(N)(=O)=O)cc2)cc1 (stereo unspecified) | > 30 | 
24 | COc1ccc(C2CC(c3ccncc3)=NN2c2ccc(S(N)(=O)=O)cc2)cc1 (stereo unspecified) | > 30 | 
25 | Fc1ccccc1C1CC(c2ccc(Br)cc2)=NN1c1ccc(Br)cc1 (stereo unspecified) [2,5-bis(4-bromophenyl)-3-(2-fluorophenyl)-3,4-dihydropyrazole] | > 30 | 
26 | COc1ccc(C2CC(c3ccc(F)cc3)=NN2c2cc(Cl)ccc2Cl)cc1 (stereo unspecified) [2-(2,5-dichlorophenyl)-5-(4-fluorophenyl)-3-(4-methoxyphenyl)-3,4-dihydropyrazole] | 11.1 | 
27 | COc1ccc(C2=NN(c3ccc(Cl)c(Cl)c3)C(c3ccc(OC)cc3)C2)cc1 (stereo unspecified) [2-(3,4-dichlorophenyl)-3,5-bis(4-methoxyphenyl)-3,4-dihydropyrazole] | > 30 | 
28 | Fc1ccc(C2=NN(c3cccc(Br)c3)C(c3ccccc3)C2)cc1 (stereo unspecified) [2-(3-bromophenyl)-5-(4-fluorophenyl)-3-phenyl-3,4-dihydropyrazole] | > 30 | 
29 | COc1ccc(C2=NN(c3cccc(F)c3)C(c3ccc(OC)cc3)C2)cc1 (stereo unspecified) [2-(3-fluorophenyl)-3,5-bis(4-methoxyphenyl)-3,4-dihydropyrazole] |  | 0.104
30 | COc1ccc(C2CC(c3ccccc3)=NN2c2ccc(Cl)c(C(=O)O)c2)cc1OC (stereo unspecified) [2-chloro-5-[3-(3,4-dimethoxyphenyl)-5-phenyl-3,4-dihydropyrazol-2-yl]benzoic acid] | > 30 | 
31 | COc1ccc(C2=NN(c3cccc(F)c3)C(c3ccc(Cl)cc3)C2)cc1 (stereo unspecified) [3-(4-chlorophenyl)-2-(3-fluorophenyl)-5-(4-methoxyphenyl)-3,4-dihydropyrazole] | > 30 | 
32 | COc1ccc(C2C[C-](c3ccccc3)N=[N+]2c2ccc([N+](=O)[O-])cc2)cc1 (stereo unspecified) [3-(4-methoxyphenyl)-2-(4-nitrophenyl)-5-phenyl-3,4-dihydropyrazole] | > 30 | 
33 | COc1ccc(C2CC(c3ccccc3)=NN2c2cccc(S(N)(=O)=O)c2)cc1 (stereo unspecified) [3-[3-(4-methoxyphenyl)-5-phenyl-3,4-dihydropyrazol-2-yl]benzenesulfonamide] | > 30 | 
34 | CN(C)c1ccc(C2CC(c3ccccc3)=NN2c2ccccc2)cc1 (stereo unspecified) [4-(2,5-diphenyl-3,4-dihydropyrazol-3-yl)-N,N-dimethylaniline] | > 30 | 
35 | NS(=O)(=O)c1ccc(N2N=C(c3ccccc3)CC2c2ccccc2)cc1 (stereo unspecified) [4-(3,5-diphenyl-3,4-dihydropyrazol-2-yl)benzenesulfonamide] | > 30 | 
36 | COc1ccc(C2=NN(c3ccc(S(N)(=O)=O)cc3)C(c3ccc(OC)cc3)C2)cc1 (stereo unspecified) [4-[3,5-bis(4-methoxyphenyl)-3,4-dihydropyrazol-2-yl]benzenesulfonamide] | > 30 | 
37 | NS(=O)(=O)c1ccc(N2N=C(c3ccccc3)CC2c2ccccc2Br)cc1 (stereo unspecified) [4-[3-(2-bromophenyl)-5-phenyl-3,4-dihydropyrazol-2-yl]benzenesulfonamide] | > 30 | 
38 | COc1ccccc1C1CC(c2ccccc2)=NN1c1ccc(S(N)(=O)=O)cc1 (stereo unspecified) [4-[3-(2-methoxyphenyl)-5-phenyl-3,4-dihydropyrazol-2-yl]benzenesulfonamide] | > 30 | 
39 | COc1cccc(C2CC(c3ccccc3)=NN2c2ccc(S(N)(=O)=O)cc2)c1 (stereo unspecified) [4-[3-(3-methoxyphenyl)-5-phenyl-3,4-dihydropyrazol-2-yl]benzenesulfonamide] | > 30 | 
40 | NS(=O)(=O)c1ccc(N2N=C(c3ccccc3)CC2c2ccc(Cl)cc2)cc1 (stereo unspecified) [4-[3-(4-chlorophenyl)-5-phenyl-3,4-dihydropyrazol-2-yl]benzenesulfonamide] | > 30 | 
41 | COc1ccc(C2CC(c3ccc(C(F)(F)F)cc3)=NN2c2ccc(S(N)(=O)=O)cc2)cc1 (stereo unspecified) [4-[3-(4-methoxyphenyl)-5-[4-(trifluoromethyl)phenyl]-3,4-dihydropyrazol-2-yl]benzenesulfonamide] | > 30 | 
42 | COc1ccc(C2CC(C)=NN2c2ccc(S(N)(=O)=O)cc2)cc1 (stereo unspecified) [4-[3-(4-methoxyphenyl)-5-methyl-3,4-dihydropyrazol-2-yl]benzenesulfonamide] | > 30 | 
43 | COc1ccc(C2CC(c3ccsc3)=NN2c2ccc(S(N)(=O)=O)cc2)cc1 (stereo unspecified) [4-[3-(4-methoxyphenyl)-5-thiophen-3-yl-3,4-dihydropyrazol-2-yl]benzenesulfonamide] | > 30 | 
44 | COc1ccc(C2CC(c3ccccc3Cl)=NN2c2ccc(S(N)(=O)=O)cc2)cc1 (stereo unspecified) [4-[5-(2-chlorophenyl)-3-(4-methoxyphenyl)-3,4-dihydropyrazol-2-yl]benzenesulfonamide] | > 30 | 

Row | Compound | EC50 [µM] | EC50 [1] [µM]
45 | COc1ccc(C2CC(c3cccc(F)c3)=NN2c2ccc(S(N)(=O)=O)cc2)cc1 (stereo unspecified) [4-[5-(3-fluorophenyl)-3-(4-methoxyphenyl)-3,4-dihydropyrazol-2-yl]benzenesulfonamide] | > 30 | 
46 | COc1ccc(C2CC(c3cccc(OC)c3)=NN2c2ccc(S(N)(=O)=O)cc2)cc1 (stereo unspecified) [4-[5-(3-methoxyphenyl)-3-(4-methoxyphenyl)-3,4-dihydropyrazol-2-yl]benzenesulfonamide] | > 30 | 
47 | NS(=O)(=O)c1ccc(N2N=C(c3ccc(Br)cc3)CC2c2ccc(F)cc2)cc1 (stereo unspecified) [4-[5-(4-bromophenyl)-3-(4-fluorophenyl)-3,4-dihydropyrazol-2-yl]benzenesulfonamide] | > 30 | 
48 | COc1ccc(C2CC(c3ccc(F)cc3)=NN2c2ccc(S(N)(=O)=O)cc2)cc1 (stereo unspecified) [4-[5-(4-fluorophenyl)-3-(4-methoxyphenyl)-3,4-dihydropyrazol-2-yl]benzenesulfonamide] | > 30 | 
49 | COc1ccc(-c2cc(-c3ccccc3)nn2-c2ccc(S(N)(=O)=O)cc2)cc1 [4-[5-(4-methoxyphenyl)-3-phenylpyrazol-1-yl]benzenesulfonamide] | > 30 | 
50 | COc1ccc(C2CC(C3CCCCC3)=NN2c2ccc(S(N)(=O)=O)cc2)cc1 (stereo unspecified) [4-[5-cyclohexyl-3-(4-methoxyphenyl)-3,4-dihydropyrazol-2-yl]benzenesulfonamide] | > 30 | 
51 | O=S(=O)(c1ccc(N2N=C(c3ccc(Br)cc3)CC2c2ccccc2)cc1)C(F)F (stereo unspecified) [5-(4-bromophenyl)-2-[4-(difluoromethylsulfonyl)phenyl]-3-phenyl-3,4-dihydropyrazole] | > 30 | 
52 | FC(F)(F)c1ccccc1C1CC(c2ccc(Br)cc2)=NN1c1ccccc1 (stereo unspecified) [5-(4-bromophenyl)-2-phenyl-3-[2-(trifluoromethyl)phenyl]-3,4-dihydropyrazole] | > 30 | 
53 | O=[N+]([O-])c1cccc(C2C[C-](c3ccc(F)cc3)N=[N+]2c2ccccc2)c1 (stereo unspecified) [5-(4-fluorophenyl)-3-(3-nitrophenyl)-2-phenyl-3,4-dihydropyrazole] | > 30 | 
54 | Cc1ccc(-c2cc(C(F)(F)F)nn2-c2ccc(S(N)(=O)=O)cc2)cc1 [Celecoxib] | > 30 | 
55 | COc1ccc(C2CC(c3ccc(N(C)C)cc3)=NN2c2ccc(S(N)(=O)=O)cc2)cc1 (stereo unspecified) [KUC103422N] | > 30 | 
56 | COc1ccc(C2CC(c3cccs3)=NN2c2ccc(S(N)(=O)=O)cc2)cc1 (stereo unspecified) [KUC103438N] | > 30 | 
57 | NS(=O)(=O)c1ccc(N2N=C(c3ccccc3)CC2c2ccccc2Cl)cc1 (stereo unspecified) [KUC103446N] | > 30 | 
58 | COc1ccc(C2CC(C(C)(C)C)=NN2c2ccc(S(N)(=O)=O)cc2)cc1 (stereo unspecified) [KUC103450N] | > 30 | 
59 | COc1ccc(C2CC(c3ccccc3C(F)(F)F)=NN2c2ccc(S(N)(=O)=O)cc2)cc1 (stereo unspecified) [KUC103474N] | > 30 | 
60 | Cc1ccccc1N1N=C(c2ccccc2)CC1c1ccc(N(C)C)cc1 (stereo unspecified) [N,N-dimethyl-4-[2-(2-methylphenyl)-5-phenyl-3,4-dihydropyrazol-3-yl]aniline] | > 30 | 
61 | COc1ccc(C2CC(c3ccccc3)=NN2c2ccc(S(N)(=O)=O)cc2)cc1OC (stereo unspecified) [UNM-0000305823] | > 30 | 
62 | COc1ccc(C2CC(c3ccc(Br)cc3)=NN2c2ccccc2Cl)cc1 (stereo unspecified) [UNM-0000305832] | > 30 | 
63 | COc1ccc(C2=NN(c3ccccc3)C(c3ccc(Cl)cc3)C2)cc1 (stereo unspecified) [UNM-0000305833] |  | 0.679
64 | O=S(=O)(O)c1ccc(N2N=C(c3ccccc3)CC2c2ccccc2)cc1 (stereo unspecified) [UNM-0000305834] | > 30 | 
65 | Cc1cccc(N2N=C(c3ccccc3)CC2c2ccccc2)c1 (stereo unspecified) [UNM-0000305835] | > 30 | 
66 | O=[N+]([O-])c1ccc([N+]2=N[C-](c3ccccc3)CC2c2ccc(O)cc2)cc1 (stereo unspecified) [UNM-0000305838] | > 30 | 
